Like-named read-outs stand apart in the source and are kept apart here.
Experiments:
RARΓ = target: T1, RARΓ (Homo sapiens, UniProt P13631); assay: Ligand binding assay
T1 construct: made in house; used as extract protein
T1 sequence (P13631 1-454): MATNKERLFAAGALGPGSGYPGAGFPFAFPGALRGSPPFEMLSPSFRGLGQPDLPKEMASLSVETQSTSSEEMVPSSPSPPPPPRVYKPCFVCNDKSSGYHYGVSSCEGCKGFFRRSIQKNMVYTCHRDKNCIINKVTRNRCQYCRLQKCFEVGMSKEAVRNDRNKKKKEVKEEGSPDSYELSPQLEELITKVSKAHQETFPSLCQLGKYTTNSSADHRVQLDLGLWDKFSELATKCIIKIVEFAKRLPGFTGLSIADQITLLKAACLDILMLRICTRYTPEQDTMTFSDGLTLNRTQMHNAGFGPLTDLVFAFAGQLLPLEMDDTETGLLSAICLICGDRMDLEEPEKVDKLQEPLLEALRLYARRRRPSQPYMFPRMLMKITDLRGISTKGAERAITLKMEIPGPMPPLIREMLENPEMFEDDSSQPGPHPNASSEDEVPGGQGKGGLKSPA
Experimental: (§1) A holoreceptor transactivation assay and a ligand binding assay which measure the ability of the compounds of the invention to bind to the several retinoid receptor subtypes, respectively, are described in published PCT Application No. WO WO93/11755 (particularly on pages 30-33 and 37-41) published on Jun. 24, 1993, the specification of which is also incorporated herein by reference. A description of the ligand binding assay is also provided below.
(§2) All binding assays were performed in a similar fashion. All six receptor types were derived from the expressed receptor type (RAR α, β, τ and RXR α, β, τ) expressed in Baculovirus. Stock solutions of all compounds were prepared as 10 mM ethanol solutions and serial dilutions carried out into 1:1 DMSO; ethanol. Assay buffers consisted of the following for all six receptor assays: 8% glycerol, 120 mM KCl, 8 mM Tris, 5 mM CHAPS 4 mM DTT and 0.24 mM PMSF, pH-7.4@room temperature.
(§3) All receptor biding assays were performed in the same manner. The final assay volume was 250 μl and contained from […] of extract protein depending on receptor being assayed along with 5 nM of [^3H) alltrans retinoic acid or 10 nM [^3H) 9-cis retinoic acid and varying concentrations of competing ligand at concentrations that ranged from 0-10^−5 M. The assays were formatted for a 96 well minitube system. Incubations were carried out at 4° C. until equilibrium was achieved. Non-specific binding was defined as that binding remaining in the presence of 1000 nM of the appropriate unlabeled retinoic acid isomer. At the end of the incubation period, 50 μl of 6.25% hydroxyapitite was added in the appropriate wash buffer. The wash buffer consisted of 100 mM KCl, 10 mM Tris and either 5 mM CHAPS (RXR α, β, τ) or 0.5% Triton X-100 (RAR α, β, τ). The mixture was vortexed and incubated for 10 minutes at 4° C., centrifuged and the supernatant removed. The hydroxyapitite was washed three more times with the appropriate wash buffer. The receptor-ligand complex was adsorbed by the hydroxyapitite. The amount of receptor-ligand complex was determined by liquid scintillation counting of hydroxyapitite pellet.
(§4) After correcting for non-specific binding, IC50 values were determined. […] The IC50 value was determined graphically from a loglogit plot of the data. The Kd values were determined by application of the ChengPrussof equation to the IC50 values, the labeled ligand concentration and the Kd of the labeled ligand.
(§5) The results of ligand binding assay are expressed in Kd numbers. (See Cheng et al. Biochemical Pharmacology Vol. 22 pp 3099-3108, expressly incorporated herein by reference.)

RARα = target: T2, RARα (Homo sapiens, UniProt P10276); assay: Ligand binding assay
T2 construct: made in house; used as extract protein
T2 sequence (P10276 1-462): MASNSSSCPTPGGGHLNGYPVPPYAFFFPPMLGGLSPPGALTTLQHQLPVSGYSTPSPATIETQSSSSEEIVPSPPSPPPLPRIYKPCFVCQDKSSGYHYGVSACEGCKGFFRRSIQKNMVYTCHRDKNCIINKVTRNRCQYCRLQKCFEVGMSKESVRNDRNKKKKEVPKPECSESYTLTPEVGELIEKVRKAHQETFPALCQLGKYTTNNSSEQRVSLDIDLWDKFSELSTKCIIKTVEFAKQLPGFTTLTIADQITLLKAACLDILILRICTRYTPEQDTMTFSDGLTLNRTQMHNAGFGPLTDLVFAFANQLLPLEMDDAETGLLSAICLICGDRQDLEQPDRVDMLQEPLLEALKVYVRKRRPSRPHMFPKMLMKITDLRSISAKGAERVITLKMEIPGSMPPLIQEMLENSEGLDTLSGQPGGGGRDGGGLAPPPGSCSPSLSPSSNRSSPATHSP
Experimental: as §1, §2, §3, §4, §5

ME-180 = assay: Cancer cell line assay, incorporation of 3H-thymidine; format: cell-based, human; conditions: 10^−11 to 10^−6 molar concentration range, 96 hours
Experimental: All trans-Retinoic acid (t-RA) (Sigma Chemicals Co., St. Louis, M.) was stored at −70° C. Prior to each experimet the compound was dissolved in 100% ethanol at 1 mM and diluted in culture medium immediately before use. All experiments were performed in subdued light. Controls were assayed using the same concentration of ethanol as present in the experimental plates and this concentration of diluent had no effect in either assay.
ME-180 is a human epidermoid carcinoma cell line derived from the cervix. The tumor was a highly invasive squamous cell carcinoma with irregular cell clusters and no significant keratinization. ME-180 cells were grown and maintained in McCoy's 5a medium (Gibco) supplemented with 10% fetal bovine serum, glutamine and antibiotics. The cells were maintained as monolayer cultures grown at 37° C. in a humidified atmosphere of 5% CO2 in air. The cells were diluted to a concentration of 1×10^5/ml twice a week.
ME-180 wells, harvested by trypsinization were plated in a 96 well flat bottom microtiter plate (Costar) at a density of 2,000 cells/well. The cultures were treated as described above for RPMI 8226 with the following exceptions. After incubation with thymidine the supernatant was carefully removed, and the cells were washed with a 0.5 mM solution of thymidine in phosphate buffered saline. ME180 cells were briefly treated with 50 μl of 2.5% trypsin to dislodge the cells from the plate. AML-193 cells were plated in a 96 well round bottom microtiter plate (Costar) at a density of 1,000 cells/well. To appropriate wells, retinoid test compounds were added at the final concentrations indicated for a final volume of 150 μl/well. The plates were incubated for 96 hours at 37° C. in a humidified atmosphere of 5% CO2 in air. Subsequently, 1 μCi of [5′-^3H]-thymidine (Amersham, U.K., 43 Ci/mmol specific activity) in 25 μl culture medium was added to each well and the cells were incubated for an additional 6 hours.
All cells lines were then processed as follows: the cellular DNA was precipitated with […] trichloroacetic acid onto glass fiber filter mats using a SKATRON multi-well cell harvester (Skatron Instruments, Sterling Va.). Radioactivity incorporated into DNA, as a direct measurement of cell growth, was measured by liquid scintillation counting. The numbers represent the mean disintegrations per minute of incorporated thymidine from triplicate wells±SEM.

[1] = receptor expressed in Baculovirus, competition with [3H] retinoic acid, Cheng-Prusoff from IC50, read-out: Kd RARΓ
[2] = receptor expressed in Baculovirus, competition with [3H] retinoic acid, Cheng-Prusoff from IC50, read-out: Kd RARα

SMILES	Kd (RARΓ; [1]) [nM]	Kd (RARα; [2]) [nM]	proliferation of the tumor cell line (incorporation of radioactive labeled thymidine) (ME-180)	Kd (RARΓ) [nM]	Kd (RARα) [nM]
CC1(C)CCC(C)(C)c2cc(C(=O)Nc3ccc(C(=O)O)c(F)c3)ccc21 [Compound 2]	> 1000	1.9			
CC1(C)CCC(C)(C)c2cc(C(=O)Nc3ccc(C(=O)O)cc3)c(F)cc21 [Compound 4]	96	23			
CC1(C)CCC(C)(C)c2c(Br)cc(C(=O)Nc3ccc(C(=O)O)c(F)c3)cc21 [Compound 6]	> 1000	1.3	significant decrease in the proliferation		
CC1(C)CCC(C)(C)c2cc(C(=O)Nc3ccc(C(=O)O)c(F)c3)c(O)cc21 [Compound 8]	> 1000	3	significant decrease in the proliferation		
CC1(C)CC(C)(C)c2cc(C(=O)Nc3ccc(C(=O)O)c(F)c3)cc(Br)c2O1 [Compound 12]	> 1000	24	significant decrease in the proliferation		
CC1(C)CC(C)(C)c2cc(C(=O)Nc3ccc(C(=O)O)c(F)c3)cc(C(F)(F)F)c2O1 [Compound 14]	> 1000	14	significant decrease in the proliferation		
CC1(C)CC(C)(C)c2cc(C(=O)Nc3ccc(C(=O)O)c(F)c3)cc(N=[N+]=[N-])c2O1 [Compound 16, 2-Fluoro-4-[(21′,2′,4′,4′-tetramethyl-8′-azidochroman-6′-yl)carbamoyl]benzoic Acid]	> 1000	52			
CC1(C)CC(C)(C)c2cc(C(=O)Nc3cc(F)c(C(=O)O)c(F)c3)cc(C(F)(F)F)c2O1 [Compound 18, 2,6-Difluoro-4-[(2′,2′,4′,4′-tetramethyl-8′-trifluoromethylchroman-6′-yl)carbamoyl]benzoic Acid]	> 1000	51			
CC1(C)CC(C)(C)c2cc(C(=O)Nc3ccc(C(=O)O)c(F)c3)cc(I)c2O1 [Compound 20]	> 1000	16	significant decrease in the proliferation		
Cc1cc(C(=O)Nc2ccc(C(=O)O)c(F)c2)cc2c1OC(C)(C)CC2(C)C [Compound 22]	> 1000	57			
CC1(C)CCC(C)(C)c2cc(C(=S)Nc3ccc(C(=O)O)cc3)ccc21 [Compound 26]	> 1000	15			
CC1(C)CC(C)(C)c2cc(C(=O)Nc3ccc(C(=O)O)c(F)c3)ccc2O1 [Compound 32]	> 1000	162			
CC1(C)CCC(C)(C)c2c1cc(C(=O)Nc1cc(F)c(C(=O)O)c(F)c1)c(O)c2Br [Compound 36]				> 1000	2.3
CC1(C)CCC(C)(C)c2cc(C(=O)Nc3cc(F)c(C(=O)O)c(F)c3)ccc21 [Compound 38]	> 1000	9			

— patent US6342602B1, “Aryl or heteroaryl amides of tetrahydronaphthalene, chroman, thichroman and 1,2,3,4-tetrahydroquinolinecarboxlic acids, having an electron withdrawing substituent in the aromatic or heteroaromatic moiety, having retinoid-like biological activity” (Allergan Sales, Inc., priority 1995, dated 2002)
